Values of other authors as cited in patent US20060159628A1, “Nanoparticulate benzothiophene formulations” (Elan Pharma International Limited, priority 2004, published 2006).

Key:
uterine tissue = conditions: ovariectomized (OVX) rats
MCF-7 cells = conditions: cell culture

- solubility in water: very slightly soluble
Structure (SMILES): Cl.O=C(c1ccc(OCCN2CCCCC2)cc1)c1c(-c2ccc(O)cc2)sc2cc(O)ccc12 [Raloxifene hydrochloride, methanone, [6-hydroxy-2-(4-hydroxyphenyl)benzo[b]thien-3-yl]-[4-[2-(1-piperidinyl)ethoxy]phenyl]-, hydrochloride]
- uterotrophic response (uterine tissue): only minimal uterotrophic response
- estrogen-dependent proliferation in MCF-7 cells (MCF-7 cells): inhibits estrogen-dependent proliferation
